# Values quoted from earlier work, collected in patent US20060110441A1, “Lyophilized liposome formulations and method” (priority 2004, published 2006).
# Conditions: not given
row,Compound,LogP
1,"Nc1nc(Nc2ccc(S(N)(=O)=O)cc2)nn1C(=O)c1c(F)cccc1F [1-(2′,6′-difluorobenzoyl)-5-amino-3-(4′-aminosulfonylanilino)-1,2,4-triazole]",around zero
2,C[C@H]1C[C@H]2[C@@H]3CCC4=CC(=O)C=C[C@]4(C)[C@@]3(F)[C@@H](O)C[C@]2(C)[C@@]1(O)C(=O)CO [betamethasone],1.9
3,CCC/C=C/C=C/C(=O)O[C@H]1/C(=C/C(=O)OC)C[C@H]2C[C@H]([C@@H](C)O)OC(=O)C[C@H](O)C[C@@H]3C[C@H](OC(C)=O)C(C)(C)[C@](O)(C[C@@H]4C/C(=C/C(=O)OC)C[C@H](/C=C/C(C)(C)[C@]1(O)O2)O4)O3 [bryostatin-1],5.4
4,CN(C)CC/C=C1/c2ccccc2Sc2ccc(Cl)cc21 [chlorprothixene],6.1
5,C[C@]12C[C@H](O)[C@H]3[C@@H](CCC4=CC(=O)CC[C@@]43C)[C@@H]1CC[C@@H]2C(=O)CO [corticosterone],1.8
6,CC(=O)O[C@@]12CO[C@@H]1C[C@H](O)[C@@]1(C)C(=O)[C@H](O)C3=C(C)[C@@H](OC(=O)[C@H](O)[C@@H](NC(=O)OC(C)(C)C)c4ccccc4)C[C@@](O)([C@@H](OC(=O)c4ccccc4)[C@H]21)C3(C)C [docetaxel],6.6
7,O=c1[nH]cc(F)c(=O)[nH]1 [fluorouracil],−0.8
8,CC(=O)O[C@H]1C(=O)[C@@]2(C)[C@H]([C@H](OC(=O)c3ccccc3)[C@]3(O)C[C@H](OC(=O)[C@H](O)[C@@H](NC(=O)c4ccccc4)c4ccccc4)C(C)=C1C3(C)C)[C@]1(OC(C)=O)CO[C@@H]1C[C@@H]2O [paclitaxel],7.4

# Conditions: not given
# Remark: another data set of the same source
Compound,water solubility (in words),aqueous solubility
"Nc1nc(Nc2ccc(S(N)(=O)=O)cc2)nn1C(=O)c1c(F)cccc1F [1-(2′,6′-difluorobenzoyl)-5-amino-3-(4′-aminosulfonylanilino)-1,2,4-triazole]",very low water solubility,–
"COc1cc([C@@H]2c3cc4c(cc3[C@@H](O[C@@H]3O[C@@H]5CO[C@@H](C)O[C@H]5[C@H](O)[C@H]3O)[C@H]3COC(=O)[C@H]23)OCO4)cc(OC)c1O [etopside, reference compound]",–,30 µg/mL

# Conditions: hydrated lipid
row,Compound,"Tm, phase transition temperature"
1,"CCCCCCCC/C=C\CCCCCCCC(=O)OC[C@H](COP(=O)(O)OCCN)OC(=O)CCCCCCC/C=C\CCCCCCCC [DOPE, dioleoyl phosphoethanolamine]",−16 °C
2,"CCCCCCCC/C=C\CCCCCCCC(=O)OC[C@H](COP(=O)(O)OCC(O)CO)OC(=O)CCCCCCC/C=C\CCCCCCCC (some centres unmarked) [DOPG, dioleoyl phosphatidylglycerol]",−18 °C
3,"CCCCCCCCCCCCCCCCCC(=O)OC[C@H](COP(=O)([O-])OCC[N+](C)(C)C)OC(=O)CCCCCCCCCCCCCCCCC [DSPC, distearoyl phosphatidylcholine]",55 °C
4,"CCCCCCCC/C=C\CCCCCCCC(=O)O[C@H](COC(=O)CCCCCCCCCCCCCCC)COP(=O)([O-])OCC[N+](C)(C)C [POPC, palmitoyloleoyl phosphatidylcholine]",−2 °C
5,CCCCC/C=C\C/C=C\CCCCCCCC(=O)OC[C@H](COP(=O)(O)OCCN)OC(=O)CCCCCCC/C=C\C/C=C\CCCCC [dilinoleoyl phosphoethanolamine],−40 °C
6,CCCCCCCC/C=C\CCCCCCCC(=O)OC[C@H](COP(=O)(O)O)OC(=O)CCCCCCC/C=C\CCCCCCCC [dioleoyl PA],−8 °C
7,CCCCCCCC/C=C\CCCCCCCC(=O)OC[C@H](COP(=O)(O)OC[C@H](N)C(=O)O)OC(=O)CCCCCCC/C=C\CCCCCCCC [dioleoyl PS],−11 °C
8,CCCCCCCCCCCCCCCCCC(=O)OC[C@H](COP(=O)(O)O)OC(=O)CCCCCCCCCCCCCCCCC [distereoyl PA],75 °C
9,CCCCCCCCCCCCCCCCCC(=O)OC[C@H](COP(=O)(O)OCC(O)CO)OC(=O)CCCCCCCCCCCCCCCCC (some centres unmarked) [distereoyl PG],55 °C
10,CCCCCCCCCCCCCCCCCC(=O)OC[C@H](COP(=O)(O)OC[C@H](N)C(=O)O)OC(=O)CCCCCCCCCCCCCCCCC [distereoyl PS],68 °C
11,CCCCCCCCCCCCCCCCCC(=O)OC[C@H](COP(=O)(O)OCCN)OC(=O)CCCCCCCCCCCCCCCCC [disteroyl phosphoethanolamine],74 °C
12,"CCCCCCCC/C=C\CCCCCCCC(=O)OC[C@H](COP(=O)([O-])OCC[N+](C)(C)C)OC(=O)CCCCCCCCCCCCCCC [oleoyl palmitoyl PC, oleolyl palmitoyl phosphatidylcholine]",−9 °C
13,"CCCCCCCC/C=C\CCCCCCCC(=O)OC[C@H](COP(=O)([O-])OCC[N+](C)(C)C)OC(=O)CCCCCCCCCCCCCCCCC [oleoyl stearyol PC, oleoyl stearoyl phosphatidylcholine]",5 to 13 °C
14,"CCCCCCCC/C=C\CCCCCCCC(=O)O[C@H](COC(=O)CCCCCCCCCCCCCCCCC)COP(=O)([O-])OCC[N+](C)(C)C [stearyol oleoyl PC, stearyoyl oleoyl phosphatidylcholine]",8 to 13 °C
15,palmitoyl docosahexaenoyl PC,−27 °C

# Same assay, conditions: hydrated lipid; listed as palmitoyl oleoyl PC
row,Compound,"Tm, phase transition temperature"
1,"CCCCCCCC/C=C\CCCCCCCC(=O)O[C@H](COC(=O)CCCCCCCCCCCCCCC)COP(=O)([O-])OCC[N+](C)(C)C [POPC, palmitoyloleoyl phosphatidylcholine]",−5 to 3 °C
